From patent US7968725B2, “Pyridinyl modulators of γ-secretase” (Janssen Pharmaceutica N.V., priority 2008, dated 2011)

Molecular target: T1, γ-secretase (Homo sapiens, UniProt P49768)
T1 construct: endogenous in cells; host or cells: SKNBE2 cells carrying APP 695 wild type
Test: Screening for γ-secretase-modulating activity in SKNBE2 cells carrying the APP 695-wild type (assay per Citron et al 1997)
Format: cell-based
Settings: @ 1 uM; SKNBE2 cells carrying APP 695-wild type
Method: Screening of the Compounds of the Invention for γ-Secretase-Modulating Activity
Screening was carried out using SKNBE2 cells carrying the APP 695-wild type, grown in DMEM/NUT-mix F12 (HAM) provided by Gibco (cat no. 31330-38) containing 5% Serum/Fe supplemented with 1% non-essential amino acids.
Cells were grown to near confluency.
The screening was performed using the assay as described in Citron et al (1997) Nature Medicine 3: 67.

inhibition at 1 µM [%]	Compound
28	CC(C)CC(C(=O)O)c1cc(-c2ccc(F)cc2)nc(-c2ccc(C(F)(F)F)cc2)c1 (stereo not shown) [Example 2, 2-[2-(4-Fluoro-phenyl)-6-(4-trifluoromethyl-phenyl)-pyridin-4-yl]-4-methyl-pentanoic acid]
34	CC(C)CC(C(=O)O)c1cc(-c2ccc(C(F)(F)F)cc2)nc(-c2ccc3ccccc3c2)c1 (stereo not shown) [Example 14, 4-Methyl-2-[2-naphthalen-2-yl-6-(4-trifluoromethyl-phenyl)-pyridin-4-yl]-pentanoic acid]
73	CC(C)CC(C(=O)O)c1cc(-c2ccc(Oc3ccccc3)cc2)nc(-c2ccc(C(F)(F)F)cc2)c1 (stereo not shown) [Example 37, 4-Methyl-2-[2-(4-phenoxy-phenyl)-6-(4-trifluoromethyl-phenyl)-pyridin-4-yl]-pentanoic acid]
18	CC(C)CC(C(=O)O)c1cc(-c2ccc(C(F)(F)F)cc2)nc(-c2ccc(S(C)(=O)=O)cc2)c1 (stereo not shown) [Example 39, 2-[2-(4-Methanesulfonyl-phenyl)-6-(4-trifluoromethyl-phenyl)-pyridin-4-yl]-4-methyl-pentanoic acid]
49	CC(C)CC(C(=O)O)c1cc(-c2ccc(-c3ccccc3)cc2)nc(-c2ccc(C(F)(F)F)cc2)c1 (stereo not shown) [Example 13, 2-[2-Biphenyl-4-yl-6-(4-trifluoromethyl-phenyl)-pyridin-4-yl]-4-methyl-pentanoic acid]

The remaining lines, values behind:

Compound	inhibition at 1 µM [%]
C=C(C)CC(C(=O)O)c1cc(-c2ccc(C(F)(F)F)cc2)nc(-c2ccc(C(F)(F)F)nc2)c1 (stereo not shown) [Example 31, 4-Methyl-2-[6′-trifluoromethyl-6-(4-trifluoromethyl-phenyl)-[2,3′]bipyridinyl-4-yl]-pent-4-enoic acid]	59
CC(C)CC(C(=O)O)c1cc(-c2ccc(C(F)(F)F)cc2)nc(-c2cc3ccccc3s2)c1 (stereo not shown) [Example 29, 2-[2-Benzo[b]thiophen-2-yl-6-(4-trifluoromethyl-phenyl)-pyridin-4-yl]-4-methyl-pentanoic acid]	57
C=C(C)CC(C(=O)O)c1cc(-c2ccc(C(F)(F)F)cc2)nc(-c2ccc3ccccc3c2)c1 (stereo not shown) [Example 15, 4-Methyl-2-[2-naphthalen-2-yl-6-(4-trifluoromethyl-phenyl)-pyridin-4-yl]-pent-4-enoic acid]	19
CC(C)CCN(c1ccc(C(F)(F)F)cc1)c1cc(CC(=O)O)cc(-c2ccc(C(F)(F)F)cc2)n1 [Example 42, [2-[(3-Methyl-butyl)-(4-trifluoromethyl-phenyl)-amino]-6-(4-trifluoromethyl-phenyl)-pyridin-4-yl]-acetic acid]	36
CC(C)CC(C(=O)O)c1cc(-c2ccc(C(F)(F)F)cc2)nc(-c2ccc(C(F)(F)F)cc2C(F)(F)F)c1 (stereo not shown) [Example 17, 2-[2-(2,4-Bis-trifluoromethyl-phenyl)-6-(4-trifluoromethyl-phenyl)-pyridin-4-yl]-4-methyl-pentanoic acid]	64
C=C(C)CC(C(=O)O)c1cc(-c2ccc(C(F)(F)F)cc2)nc(-c2cncc3ccccc23)c1 (stereo not shown) [Example 18, 2-[2-Isoquinolin-4-yl-6-(4-trifluoromethyl-phenyl)-pyridin-4-yl]-4-methyl-pent-4-enoic acid]	14

Same assay, conditions: SKNBE2 cells carrying APP 695-wild type

EC50 [nM]	Compound
270	CC(C)CC(C(=O)O)c1cc(-c2ccc(C(F)(F)F)cc2)nc(-c2cc(C(F)(F)F)cc(C(F)(F)F)c2)c1 (stereo not shown) [Example 6, 2-[2-(3,5-Bis-trifluoromethyl-phenyl)-6-(4-trifluoromethyl-phenyl)-pyridin-4-yl]-4-methyl-pentanoic acid]
380	CC(C)CC(C(=O)O)c1cc(-c2ccc(OC(F)(F)F)cc2)nc(-c2ccc(C(F)(F)F)cc2)c1 (stereo not shown) [Example 3, 4-Methyl-2-[2-(4-trifluoromethoxy-phenyl)-6-(4-trifluoromethyl-phenyl)-pyridin-4-yl]-pentanoic acid]
